Measured values reported in US10676440B2, “Crystalline forms of an NK-1 antagonist” (Helsinn Healthcare SA, priority 2014, dated 2020).

Legend:
in vivo = settings: male, RoRo Fuellinsdorf, rat, in vivo; for AUC(0-t): AUC (0-24 h)
Experimental: In Example 11, the pharmacokinetics of the compound of Formula I was evaluated following single intravenous, intraperitoneal, and oral administration to rats to compare the oral bioavailability of two different formulations and to measure the brain penetration after intravenous administration.
A solution of the compound of Formula I (4.7 mg/mL) in water and a suspension of the compound of Formula I (5 mg/mL) in SSV (standard suspension vehicle) were prepared.
The experiments were performed in 20 male rats (Strain RoRo Fuellinsdorf, body weight 230-290 g) from Biological Research Laboratories, Fuellinsdorf, Switzerland. The animals were housed under standard laboratory conditions throughout the study period. After an acclimatization period of 3 days, the rats were implanted with chronic jugular catheters under pentobarbital anesthesia. After surgery the rats were on recovery for 2 days before dosing. They had free access to water and food during the experiment.
For the pharmacokinetic studies, 0.4 mL blood samples were collected at different time points, up to 72 hours post-dose, from the jugular vein of the rats via catheter. For the study of brain and CSF penetration, 2 mL blood samples as well as CSF and brain were collected between 0.3 and 2 hours post-dose from one rat at each time point. Collection tubes contained EDTA/NAF as anticoagulant and stabilizer, respectively. After centrifugation, plasma was removed. Plasma, CSF and brain samples were stored deep-frozen at approximately −20° C. until analysis using a specific LC-MS method.
Aliquots of plasma samples of 40 μL were mixed with 50 μL buffer pH 9, 50 μL of a Formula I internal standard (1 μg/mL 1-chlorobutane) and 250 μL butylacetate and then shaken for 10 min. After centrifugation, 200 μL of the supernatant were evaporated to dryness at 45° C. under a stream of nitrogen. The residue was reconstituted with 200 μL acetonitrile/1% formic acid in water (30/70, v/v). An aliquot of 30 μL was injected onto an analytical column (Waters, Symmetry C8, 2.1×150 mm, 5 μm).
The sample passed to the ion-spray interface of the single quadrupole mass spectrometer. Selected ion monitoring mode (SIM) was used for mass spectrometric detection. Quantification was based on peak area ratios and calibration curve established by weighted (1/x^2) linear regression. The calibration curve was established between 5 and 5000 ng/mL using dog plasma as matrix. Data acquisition and integration of SIM chromatograms were performed using MacQuan (version 1.6) from Perkin-Elmer Sciex.
The pharmacokinetic parameters were estimated by non-compartmental analysis, using the pharmacokinetic evaluation program WinNOnlin [1]. AUC(0-inf) was calculated applying the linear trapezoidal rule and extrapolation to infinity using the apparent elimination rate constant λz and the calculated concentration at the last measurable time point. AUClast values were calculated by linear trapezoidal rule from time zero to time of last measureable time point. Cmax, C(t), and Tmax were determined directly from the plasma concentration-time profiles. The apparent terminal half-life (T1/2) was derived from the equation: T1/2=ln2/λz. Means of the half-life were calculated by harmonic means. Plasma clearance, CL, was calculated as D/AUC(0-inf.). Volume of distribution, Vz, was calculated as CL/λz. The absolute bioavailability was calculated from plasma concentration data as follows: […]
A solution of Formula I (hydrochloride salt) was administered intravenously at a dose of 9.4 mg/kg to 2 male rats in two subsequent experiments. In both studies, blood samples were obtained at 0.083, 0.25, 0.5, 1, 2, 4, 6, 8, and 24 h after intravenous application and in addition at 48 and 72 h in the study.

[1] = Brain and CSF penetration after intravenous administration in rats; format: in vivo; settings: male, RoRo Fuellinsdorf, rat, brain homogenate / plasma, i.v., approximately 0.25, 0.5, 1 and 2 h, read-out: ratios of brain homogenate/plasma concentrations
Experimental: After centrifugation, plasma was removed.
The frozen half brain was weighed. After thawing, the tissue was suspended in a 2 mL eppendorf polypropylene tube with 2 volumes of sterile apyrogen and cold NaCl (+4° C.; 0.9% solution) (0.333 g brain/mL NaCl). The tissue was homogenized (ice bath) using a Vibra-Cell ultrasonic processor (Sonics & Material, Inc. Danbury, CT-USA) for 2×10 s (amplitude: 60, energy: 25). An aliquot of the resulting brain homogenate (40 μL) was used for extraction as described for plasma. 50 μL CSF with 50 μL plasma were used for extraction as described under plasma sample preparation.
Brains were taken at approximately 0.25, 0.5, 1 and 2 h after intravenous administration of Formula I into the tail vein of 8 rats (2 rats per time point). For all time points, the concentrations were higher in the brain than in the plasma, with ratios of brain homogenate/plasma concentrations of 2.4 to 4.9. The CSF was taken at the same time points and analyzed but the concentrations were low (4.9 to 16 ng/mL or below 4 ng/mL), possibly due to the high plasma protein binding.

Cc1ccccc1-c1cc(N2CCN(C)CC2)ncc1N(C)C(=O)C(C)(C)c1cc(C(F)(F)F)cc(C(F)(F)F)c1 [Formula I, 2-(3,5-bis(trifluoromethyl)phenyl)-N,2-dimethyl-N-(6-(4-methylpiperazin-1-yl)-4-(o-tolyl)pyridin-3-yl)propanamide]
AUC (0-24 h) (in vivo; ip, 9.4 mg/kg): 19900 ng·h/mL | Cmax (in vivo; ip, 9.4 mg/kg): 1730 ng/mL | Tmax (in vivo; ip, 9.4 mg/kg): 0.25 h | AUC(0-t) (in vivo; ip, 9.4 mg/kg): 26800 ng·h/mL | Cmax (in vivo; ip, 9.4 mg/kg, Cmax): 1610 ng/mL | Tmax (in vivo; ip, 9.4 mg/kg, Tmax): ≤ 0.25 h | Vd (in vivo; iv): 12 L/kg | clearance (in vivo; iv): 6 mL/min/kg | AUC (0-24 h) (in vivo; iv, 9.4 mg/kg): 24400 ng·h/mL | AUC(0-t) (in vivo; iv, 9.4 mg/kg): 29200 ng·h/mL | half-life (in vivo; iv, 9.4 mg/kg, mean apparent terminal half-life): 19.5 h | AUC (0-24 h) (in vivo; po, 9.4 mg/kg): 12600 ng·h/mL | Cmax (in vivo; po, 9.4 mg/kg): 682 ng/mL | T1/2 (in vivo; po, 9.4 mg/kg): 18.9 h | Tmax (in vivo; po, 9.4 mg/kg): 4 h | AUC(0-t) (in vivo; po, 9.4 mg/kg): 15000 ng·h/mL | Cmax (in vivo; po, 9.4 mg/kg, Cmax): 991 ng/mL | half-life (in vivo; po, 9.4 mg/kg, T1/2): 17.7 h | Tmax (in vivo; po, 9.4 mg/kg, Tmax): 2 h | Kp [1]: 2.4 to 4.9
